Data: US20130039928A1, “COMPOSITIONS AND METHODS FOR REVERSING CORTICOSTEROID RESISTANCE OR TREATING RESPIRATORY INFECTIONS” (priority 2010, published 2013)
Like-named read-outs stand apart in the source and are kept apart here. Each block holds one compound with its values, some of them ahead of it. Peptide text beside a SMILES is read from it. * marks the point of attachment. Cbz = O=C(OCc1ccccc1)*

Legend:
[1] = molecular target: T1, HDAC2 (Homo sapiens, UniProt Q92769); experiment: Cell-free denitrosylation and activity of HDAC2 (cell lysates, IP-HDAC2); format: biochemical
T1 construct: HDAC2 was immunoprecipitated for analysis of enzymatic activity; endogenous in cells; host or cells: alveolar macrophages from patients with COPD; HDAC2 immunoprecipitated with the Santa Cruz antibody
Procedure: (§1) HDAC activity was measured using a fluorescent derivative of ε-acetyl-lysine from Enzo life sciences (Farmingdale, N.Y.) according to the manufacturer's recommendations. HDAC2 was immunoprecipitated for analysis of enzymatic activity.
(§2) Macrophage cell or lung tissue extracts were prepared by using 100 μL of immunoprecipitation buffer (50 mM Tris-HCl, pH 8.0, 150 mM NaCl, 1.0% Triton X-100, 0.5% NP-40, 0.1% SDS, 0.5% deoxycholate, and complete protease inhibitor cocktail) from Roche (Morristown, N.J.). The lysis mixture was incubated on ice for 15 minutes and microcentrifuged for 10 minutes at 4° C. Extracts were precleared with 20 μL protein A/G sepharose beads (a 50:50 mix) from Thermo scientific (Rockford, Ill.) and 2 μg of normal IgG. After microcentrifugation, 20 μL of protein A/G sepharose conjugated with 5 μg of antibody was used to precipitate HDAC2 (Santa Cruz Biotechnology, Santa Cruz, Calif.) overnight at 4° C. with rotation. The immune complexes were pelleted with gentle centrifugation, washed twice with 1 mL of immunoprecipitation buffer, and divided equally for the final wash for the activity assay and immunoblotting. For the HDAC assay, immunoprecipitates were resuspended in the activity assay buffer (50 mM TrisHCl, pH 8.0; 10% glycerol; 1 mM dithiothreitol; 0.1 mM EDTA, complete protease inhibitor cocktail). For HDAC2-specific western blotting, immune complexes were washed three times with the immunoprecipitation buffer and finally resuspended in Laemmli buffer for the SDS-PAGE.
S-nitrosylated proteins were detected by using the nitrate/nitrite fluorometric assay kit from Cayman chemicals (Ann Arbor, Mich.) according to the manufacturer's instructions. For HDAC2-specific nitrosylation detection, cells were lysed in buffer (50 mM Tris-HCl, pH 8.0, 150 mM NaCl, 1% Nonidet P-40, 0.5% deoxycholic acid, 0.1% SDS). These lysates were then subjected to immunoprecipitation by using an anti-HDAC2 antibody as described above. The immunoprecipitates were washed twice with lysis buffer and twice with PBS. The pellets were resuspended in 500 μL of PBS. After the addition of 100 μM HgCl2 and 100 μM DAN, the samples were incubated in the dark at 25° C. for 30 minutes, and 1 M NaOH was added. The generated fluorescent triazole from the reaction of the DAN with the NO released from the HDAC2 protein was measured by using an excitation wavelength of 375 nm and an emission wavelength of 450 nm. As a negative control, the antibody alone in lysis buffer was immunoprecipitated. The resulting background fluorescence intensity was subtracted for each experiment.

[2] = molecular target: recombinant HDAC2 (rHDAC2) (Homo sapiens, UniProt Q92769); experiment: Cell-free enzymatic activity of recombinant HDAC2; format: biochemical
Procedure: as §1

[3] = tested on: Pseudomonas aeruginosa; experiment: Clearance of bacteria in vitro by alveolar macrophages (PA); format: cell-based; settings: COPD alveolar macrophages
Procedure: Human alveolar macrophages were purified from individual BAL samples by centrifugation and seeded onto 6-well tissue culture plates. After incubation for 2 h, non-adherent cells were removed and the adherent cells were incubated with R, S-sulforaphane (5 μM; LKT Laboratories, Inc., St. Paul, Minn.) and or DMSO in RPMI 1640 culture medium with 10% FBS and 1% penicillin-streptomycin (Invitrogen, Carlsbad, Calif.). After 16-20 h, adherent cells were scraped, suspended in RPMI 1640 culture media and plated onto 96-well tissue culture plates for bacterial phagocytosis and clearance assays. […] For MARCO antibody-depletion, alveolar macrophages were incubated with human anti-MARCO antibody (1 μg/ml; (Hycult, Uden, The Netherlands) for 4 hours prior to bacterial challenge.
Sputum isolates of nontypeable H. influenzae and P. aeruginosa obtained from patients with COPD at the Department of Veterans Affairs, Western New York Healthcare System were used (S. Sethi, N. Evans, B. J. Grant, T. F. Murphy, N Engl J Med 347, 465 (Aug. 15, 2002); C. S. Berenson, M. A. Garlipp, L. J. Grove, J. Maloney, S. Sethi, J Infect Dis 194, 1375 (Nov. 15, 2006); T. F. Murphy et al., Am J Respir Crit Care Med 177, 853 (Apr. 15, 2008); T. F. Murphy, A. L. Brauer, A. T. Schiffmacher, S. Sethi, Am J Respir Crit Care Med 170, 266 (Aug. 1, 2004)). For bacterial growth, H. influenzae was cultured on chocolate agar or grown in brain heart infusion broth supplemented with 20 μg/mlNAD and 10 μg/ml hemin at 35° C. in 5% CO2. P. aeruginosa was cultured on LB agar plates or in LB broth at 37° C. For FITC-labeling of bacteria, heat inactivated PA and NTHI (10^9 CFU/ml) were resuspended in 1 ml of labeling buffer (0.1 M NaHCO3, pH 9.2) and incubated with fluorescein isothiocyanate (FITC) (Sigma) under constant stiffing in the dark at room temperature for 1 h. Finally, bacteria were washed three times with PBS and dialyzed overnight against PBS. FITC-labeled bacteria were resuspended with PBS at a concentration of 10^9/ml.
After treatment, macrophages (10^5 cells) were incubated with bacteria (PA or NTHI) for 4 h. Subsequently, 100 μL of cell free culture medium was aseptically plated and cultured on tryptose blood and or chocolate agar plates at 37° C. The number of bacterial colonies was counted after 24 h.

[4] = tested on: glutathione; experiment: Intracellular glutathione levels in COPD macrophages; format: cell-based, human; settings: COPD alveolar macrophages
[5] = tested on: IL-8; experiment: Corticosteroid responsiveness: basal and LPS-induced IL-8 secretion by alveolar macrophages; format: cell-based, human
Procedure: (§3) For inducing corticosteroid resistance, PMs were exposed to cigarette smoke condensate (CSC, 100 μg/ml; Murty Pharmaceuticals, Lexington, Ky.) for 16 h. Exposure to S-nitrosoglutathione (GSNO, 10 μM) was limited to 4 h. […] For assessing corticosteroid responsiveness, macrophages were incubated with dexamethasone (1 μM, Sigma) for 1 h followed by LPS (100 ng/ml, Sigma) for additional 4 h.
For human IL-8 and mouse IL-6 and MCP-1 proteins, Quantikine ELISA kits from R&D systems (Minneapolis, Minn.) were used according to the manufacturer's instructions.

[6] = tested on: HDAC2; format: cell-based, human
Procedure: as §3, §1, §2

[7] = tested on: HDAC2; experiment: Posttranslational modification of HDAC2 in alveolar macrophages (immunoblot, DAN, biotin-switch); format: cell-based, human; settings: for levels of SNO-HDAC2: GSNO-exposed alveolar macrophages
Procedure: S-nitrosylation of proteins was analyzed by anti-SNO antibody, biotin switch assay, and or 2,3-diaminonapthalene (DAN) assay. […] Detail methodology is described in supplementary data.
as §2
For HDAC2-specific nitrosylation detection, cells were lysed in buffer (50 mM Tris-HCl, pH 8.0, 150 mM NaCl, 1% Nonidet P-40, 0.5% deoxycholic acid, 0.1% SDS). […] The pellets were resuspended in 500 μL of PBS.
This assay was performed in the dark.
The Image J program was used for densitometry analyses.

[8] = tested on: NO; experiment: NO levels and iNOS expression in alveolar macrophages; format: cell-based, human; settings: COPD alveolar macrophages, vs vehicle
Procedure: as §3, §1
(§4) Total RNA was extracted from the cells by lysis and specific binding to a silica membrance (Qiagen RNeasy kit, Qiagen, Valencia, Calif.), and qRT-PCR was performed by using primers and probe sets for human IL-8, NQO1, GCLM, and iNOS (Assay-on-Demand, Applied Biosystems, Foster City, Calif.). A real-time fluorescent PCR system (ABI 7000 Taqman system, Applied Biosystems) was used to perform these assays. β-actin was used as the normalization control.

[9] = tested on: IL-8 promoter; experiment: ChIP of IL-8 promoter (histone acetylation, HDAC2 binding) in alveolar macrophages; format: cell-based, human
Procedure: as §3
Chromatin immunoprecipitation was performed as described previously (Hogg, J. C. & Timens, W., Annu Rev Pathol (2008)). Briefly, cells were fixed in ˜1% formaldehyde in cell growth media for 10 minutes followed by glycine fixation. Cells were then sonicated in ChIP-lysis buffer containing a protease inhibitor cocktail after incubation on ice for 30 minutes. […] sonication, the samples were spun at maximum speed for 12 minutes in a cold microcentrifuge. The supernatants were then addressed as input samples. A part of the input sample was precleared by using a 50% slurry of protein A/G beads prepared in immunoprecipitation (IP) buffer for 2 hours in the cold, following which the beads were centrifuged out and the supernatant was used for IP. Then the precleared samples were incubated with 2 μg of panacetylated histone H4 antibody (ChIP assay kit; Upstate Biotechnology) or anti-HDAC2 antibody from Santa Cruz Biotechnology. As a control, anti-rabbit IgG antibody was added for 1 hour in the cold. The protein A/G bead slurry was added to each reaction and was rotated overnight. The next day, the beads were washed extensively, and the DNA was reverse crosslinked, eluted in elution buffer, and stored at −80° C. until used for sequencing or PCR validation assays. […] This immunoprecipitated DNA was used for PCR amplification by using the specific gene (IL-8 for humans and MCP-1 for mice) promoter PCR assays. PCR primers were used for the IL-8 promoter (forward: 5′-[…]-3′ and reverse: 5′-[…]-3′) and the MCP-1 promoter (forward: 5′-[…]-3′ and reverse: 5′-[…]-3′).

[10] = tested on: HDAC2; format: cell-based, human; settings: COPD alveolar macrophages
Procedure: as §3
All immunoblots were performed by using protocols as described previously (Barnes, P. J., N Engl J Med 343, 269-280 (2000)). Rabbit anti-HDAC2 antibody from Santa Cruz Biotechnology (Santa Cruz, Calif.) was used at 1:500 dilutions. Rabbit anti-5-nitroso-cysteine antibody from Alpha diagnostics was used at 1:500 dilutions. Rabbit anti-nitro-tyrosine antibody from Cell Signaling Technology, was used at 1:250 dilution. Rabbit anti-ubiquitin antibody from Santa Cruz Biotechnology (Santa Cruz, Calif.) was used at 1:1000 dilutions. Rabbit anti-GR antibody from Santa Cruz Biotechnology (Santa Cruz, Calif.) was used at a dilution of 1:1000. Rabbit anti-MMP9 antibody from Sigma Aldrich was used at 1:500 dilutions. Rabbit anti-acetyl-lysine antibody from Abcam was used at 1:750 dilutions. Rabbit anti-lamin-B1 from Santa Cruz Biotechnology (Santa Cruz, Calif.) was used at 1:1000 dilutions as a loading control. The Image J program was used for densitometry analyses.
as §4

[11] = cell lysates incubated with GSH
[12] = COPD alveolar macrophages, result in words

T1 sequence (Q92769 whole entry): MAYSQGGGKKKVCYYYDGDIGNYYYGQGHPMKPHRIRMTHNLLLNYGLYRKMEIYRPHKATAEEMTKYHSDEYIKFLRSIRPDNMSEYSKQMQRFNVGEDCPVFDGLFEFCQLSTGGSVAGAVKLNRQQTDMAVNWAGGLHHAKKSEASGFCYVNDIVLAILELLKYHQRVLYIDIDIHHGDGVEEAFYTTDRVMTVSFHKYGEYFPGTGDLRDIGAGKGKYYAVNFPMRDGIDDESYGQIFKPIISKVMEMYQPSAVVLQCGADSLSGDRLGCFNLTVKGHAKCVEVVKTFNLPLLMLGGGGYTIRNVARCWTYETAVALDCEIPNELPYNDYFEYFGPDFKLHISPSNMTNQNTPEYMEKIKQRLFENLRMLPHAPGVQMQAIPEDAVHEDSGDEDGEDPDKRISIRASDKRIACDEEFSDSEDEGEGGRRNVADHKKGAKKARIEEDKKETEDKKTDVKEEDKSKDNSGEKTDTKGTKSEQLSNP
Sequence of recombinant HDAC2 (rHDAC2) (Q92769 whole entry, species assumed): as the sequence (Q92769 whole entry) above

S-nitrosylation and enzymatic activity of GSNO-exposed IP-HDAC2 ([1]; after incubation with GSH): reversed by GSH treatment | HDAC2 activity [1, 11]: concurrent increase in HDAC2 activity | nitrosylation (DAN assay) [1, 11]: denitrosylation by GSH | rHDAC2 enzymatic activity after GSNO treatment ([2]; in the presence of GSH): restored by GSH
SMILES: N[C@@H](CCC(=O)N[C@@H](CS)C(=O)NCC(=O)O)C(=O)O [GSH, glutathione]

SMILES: CCOC(=O)CNC(=O)[C@H](CS)NC(=O)CC[C@H](N)C(=O)O [GSH-e, GSH-ethyl ester]
bacterial clearance [3]: failed to improve bacterial clearance | intracellular glutathione levels [4]: increased intracellular glutathione levels | repressive effect of DEX on basal and LPS-induced IL-8 secretion ([5]; GSNO exposed COPD alveolar macrophages, GSH-e 1 mM): significantly increased the repressive effect of DEX | HDAC2 enzymatic activity ([6]; treatment after GSNO exposure of alveolar macrophages): significantly elevated HDAC2 enzymatic activity | levels of SNO-HDAC2 [7]: significant reduction in the levels of SNO-HDAC2

S-nitrosylation of IP-HDAC2 ([1]; GSNO exposure): elevated S-nitrosylation | enzymatic activity of IP-HDAC2 ([1]; GSNO exposure): decreased enzymatic activity
SMILES: N[C@@H](CCC(=O)N[C@@H](CSN=O)C(=O)NCC(=O)O)C(=O)O [GSNO, S-nitrosoglutathione]
DEX resistance ([5]; GSNO exposure): did not further increase DEX resistance | LPS-induced IL-8 secretion ([5]; GSNO treatment (10 μM, 4 h)): moderately augmented LPS-induced IL-8 secretion | HDAC2 enzymatic activity [6, 12]: decreased HDAC2 enzymatic activity | rHDAC2 enzymatic activity ([2]; with GSNO): significantly inhibited rHDAC2 enzymatic activity

SMILES: COC(=O)[C@@H](N)CCCNC(=N)N[N+](=O)[O-] [L-NAME, L-nitroarginine methyl ester]
DEX's repressive effect on basal and LPS-induced IL-8 expression (DEX responsiveness) ([5]; protein and mRNA): failed | HDAC2 enzymatic activity [6, 12]: failed to increase HDAC2 enzymatic activity | tyrosine nitration of HDAC2 (nitrotyrosine-HDAC2) ([7]; immunopurified HDAC2 from alveolar macrophages, compared with vehicle): significantly decreased levels of nitrotyrosine-HDAC2 | NO levels [8]: suppressed NO generation

SMILES: CC(C)C[C@@H](C=O)NC(=O)[C@H](CC(C)C)NC(=O)[C@H](CC(C)C)NC(=O)OCc1ccccc1 [MG132] (Cbz-Leu-Leu-Leu-aldehyde)
HDAC2 binding in the IL-8 promoter ([9]; COPD alveolar macrophages): no increase | HDAC2 enzymatic activity [6, 12]: no increase in HDAC2 enzymatic activity | HDAC2 protein levels [10]: increase in total HDAC2 protein

SMILES: CC(=O)N[C@@H](CS)C(=O)O [NAC, N-acetyl cysteine]
bacterial clearance [3]: failed to improve bacterial clearance | intracellular glutathione levels [4]: increased intracellular glutathione levels | levels of SNO-HDAC2 [7]: failed to ameliorate SNO-HDAC2 levels

SMILES: CC(/C=C/C(=O)NO)=C\[C@@H](C)C(=O)c1ccc(N(C)C)cc1 [TSA, trichostatin]
basal and LPS-induced histone acetylation in the IL-8 promoter region ([9]; cotreatment with sulforaphane, with and without DEX): ablated sulforaphane repressed basal and LPS-induced histone acetylation
